Experimental findings from PMC6441926 (Molecular Oncology, 2019) are described below.

SMILES strings stand for the structures. Residues, ends and D or L forms follow the SMILES beside them. *: point of attachment. Cbz = O=C(OCc1ccccc1)*

One series relates to A549 cells. Description: CCK-8 cell viability assay, A549. The class given is cell-based. Particulars: for IC50: Homo sapiens, A549, CCK-8, 48 h, EGFR wild-type. The procedure:
Cell proliferation was measured by Cell Counting Kit‐8 (CCK‐8) assay (Bestbio, Shanghai, China). Cells were cultured in 96‐well plates at a concentration of 7 × 10^3/well for 24 h. If necessary, cells were pretreated with 25 or 50 μM of Z‐VAD‐FMK for 4 h. […] Supernatant was totally removed and 100 μL of CCK‐8 solution was added to each well and cultured for another 2 h at 37 °C. Cell viability was quantified using a SpectraMax M2e (Molecular Devices, San Jose, CA, USA) at 450 nm. Cell viability was calculated for each well as (absorbance 450 nm of treated cells/absorbance 450 nm of control cells) × 100%. Assays were performed on three independent experiments.
A general note: Tetrazolium dyes change colour on reduction, which living cells bring about.

The next series relates to H1975 cells. Briefly: CCK-8 cell viability assay, H1975. The class given is cell-based. Particulars: Homo sapiens, NCI-H1975; CCK-8, 48 h, EGFR L858R/T790M. The procedure: (§1) Cell proliferation was measured by Cell Counting Kit‐8 (CCK‐8) assay (Bestbio, Shanghai, China). Cells were cultured in 96‐well plates at a concentration of 7 × 10^3/well for 24 h. If necessary, cells were pretreated with 25 or 50 μM of Z‐VAD‐FMK for 4 h. Then cells were treated with indicated concentrations of compounds for 48 h. Supernatant was totally removed and 100 μL of CCK‐8 solution was added to each well and cultured for another 2 h at 37 °C. Cell viability was quantified using a SpectraMax M2e (Molecular Devices, San Jose, CA, USA) at 450 nm. Cell viability was calculated for each well as (absorbance 450 nm of treated cells/absorbance 450 nm of control cells) × 100%. Assays were performed on three independent experiments.

In a further series the test system is Mcl-1. Briefly: Western blot of Mcl-1 protein level in A549 cells. The class given is cell-based. Particulars: 8 h.
The target of the next series is PI3Ka (Homo sapiens, UniProt P42336). Description: Kinase inhibition ELISA, PI3Ka. The class given is biochemical. As to conditions: ELISA kinase assay. An excerpt:
(§2) ELISA was used to determine the inhibitory effect of Ibr‐7 on five kinases after molecular modification. […] Since p‐S6 is the downstream functional factor that controls the translational process, we attempted to determine the role of p‐S6 in the Ibr‐7 antitumor effect.
(In general: In an ELISA, binding on a coated surface is turned into a signal by an enzyme label.)

Series [1] addresses mTOR (Homo sapiens, UniProt P42345). Briefly: Kinase inhibition ELISA, mTOR. The class given is biochemical. As to conditions: ELISA kinase assay.
Excerpt: as §2

Series [2] deals with primary lung cancer cells. Description: Collagen gel droplet embedded 3D-culture (CD-DST) of primary lung cancer cells. The class given is cell-based. Particulars: Homo sapiens; 15 primary lung cancer samples, 4 μM for 24 h, then cultured another 5 days, neutral red; read-out: viable cell percentage. The procedure: Collagen gel droplet embedded 3D‐culture system (CD‐DST) system was performed using a Tumor chemo‐sensitivity assay kit provided by Guangzhou Darui Biotechnology Co., Ltd (Guangzhou, China) (Hou et al., 2017). Briefly, 0.1–0.5 g freshly dissected human lung cancer tissues were digested by trypsin and incubated in collagen gel‐coated flasks. Then, cells were collected and incubated in a collagen gel droplet at the density of 4000 cells per droplet (the volume of each droplet was 30 μL). […] Cells were visualized by neutral red stain and observed using cell analysis system DR6690 (Guangzhou Darui Biotechnology Co., Ltd). Survival rates were calculated as (absorbance 540 nm of treatment group/absorbance 540 nm of control group) × 100%.
Table S2. Cell viability of 15 primary lung cancer cells after treatment with 4 μM of compounds for 24 h, and cultured for another 120 h before neutral red stain and fixation. Cell viability was calculated observed using specific cell analysis system DR6690 (Guangzhou Darui Biotechnology Co., Ltd, Guangzhou, China). Survival rates were calculated as (O.D. 540nm treatment group/O.D. 540nm control group) × 100%.

The target in another series is p70S6K (Homo sapiens, UniProt P23443). Description: Kinase inhibition ELISA, p70S6K. The class given is biochemical. Particulars: ELISA kinase assay.
p70S6K, sequence (P23443 whole entry): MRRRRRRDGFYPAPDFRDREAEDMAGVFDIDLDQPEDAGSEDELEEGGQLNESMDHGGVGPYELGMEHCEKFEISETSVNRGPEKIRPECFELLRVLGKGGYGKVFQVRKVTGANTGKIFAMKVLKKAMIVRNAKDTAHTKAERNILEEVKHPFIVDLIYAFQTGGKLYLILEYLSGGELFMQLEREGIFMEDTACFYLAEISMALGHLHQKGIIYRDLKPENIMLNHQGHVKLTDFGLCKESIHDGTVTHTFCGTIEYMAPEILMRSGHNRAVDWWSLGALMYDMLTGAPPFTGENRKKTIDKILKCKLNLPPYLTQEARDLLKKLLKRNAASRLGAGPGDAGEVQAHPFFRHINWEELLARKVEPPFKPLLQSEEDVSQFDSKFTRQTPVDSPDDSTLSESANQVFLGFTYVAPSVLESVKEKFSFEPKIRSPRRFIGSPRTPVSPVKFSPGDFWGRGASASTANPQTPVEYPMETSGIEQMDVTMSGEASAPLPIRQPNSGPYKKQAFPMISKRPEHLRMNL
Excerpt: as §2

The target of a further series is AKT1 (Homo sapiens, UniProt P31749). Briefly: Kinase inhibition ELISA, AKT1. It counts as biochemical. Particulars: ELISA kinase assay.
AKT1, sequence (P31749 whole entry): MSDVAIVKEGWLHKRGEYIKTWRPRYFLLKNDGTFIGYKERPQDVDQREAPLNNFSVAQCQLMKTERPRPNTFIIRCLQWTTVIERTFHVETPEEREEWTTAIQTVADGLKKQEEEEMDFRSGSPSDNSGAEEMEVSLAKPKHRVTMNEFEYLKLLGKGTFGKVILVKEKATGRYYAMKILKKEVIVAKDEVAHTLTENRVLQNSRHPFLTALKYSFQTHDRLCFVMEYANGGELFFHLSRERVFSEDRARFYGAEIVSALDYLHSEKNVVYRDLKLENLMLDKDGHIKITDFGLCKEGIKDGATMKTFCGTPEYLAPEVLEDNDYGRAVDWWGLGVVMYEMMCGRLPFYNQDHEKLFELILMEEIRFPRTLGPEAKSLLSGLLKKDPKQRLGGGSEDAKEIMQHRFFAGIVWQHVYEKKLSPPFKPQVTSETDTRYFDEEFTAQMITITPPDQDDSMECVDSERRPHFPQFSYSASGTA
Excerpt: as §2

Series [3] has as its target T1, EGFR (Homo sapiens, UniProt P00533). Briefly: Kinase inhibition ELISA, EGFR. Particulars: ELISA kinase assay. It counts as biochemical.
Excerpt: as §2

Another series concerns PC-9 cells. Description: CCK-8 cell viability assay, PC-9. It counts as cell-based. As to conditions: Homo sapiens, CCK-8, 48 h, EGFR exon 19 deletion. The procedure: as §1
Another series has as its system H460 cells. Description: CCK-8 cell viability assay, H460. It counts as cell-based. As to conditions: Homo sapiens, NCI-H460; CCK-8, 48 h, EGFR wild-type. The procedure: as §1
Series [4] in a line: Pharmacokinetics in SD rat. The class given is in vivo. Particulars: po, intragastric 30 mg/kg. Here is the method:
Table S3. PK parameters of Ibr-7 in SD rat (i.g 30 mg/kg). Ibr-7 was orally administrated at the dose of 30 mg/kg. At each time point, 0.1 ml of rat blood was gained through retro-orbital plexus and then centrifuged at 5,000 rpm, 4 ℃ for 10 min. 10 μl of sample was mixed with 100 μl of internal reference (Buspirone 50 ng/ml, terfenadine 50 ng/ml), and vortexed for 60 s. After centrifuging at 12,000 rpm for 3 min, the supernatant was collected and transferred to an equal volume of distilled water into the 96-well plate. The final injection volume was 10 μl. Samples were analyzed by LC-MS/MS (API 4000QTRAP) and data was processed by Analyst v 1.5.1.

The subject of another series is A549 xenograft. Briefly: A549 tumor xenograft assay. It counts as in vivo. Particulars: A549 xenograft nude mice, 60 mg·kg^−1 intragastric twice per day. The procedure: All animal experiments were conducted according to the Institutional Animal Care and Use Committee (IACUC). A total of 5 × 10^6 A549 cells was resuspended in 200 μL PBS and injected subcutaneously into each 4‐week‐old female nude mice. Once the tumor volume had reached 100–200 mm^3, six mice were randomized into each group. […] Then, 2.375 mL of 20% HP‐beta‐cyclodextrin was added to the above mixture to make a final concentration of 6 mg·mL^−1. […] Tumor volumes were determined from caliper measurements of tumor length (L) and width (W) according to the formula (L × W^2)/2. The relative tumor volume (RTV) was calculated using the following formula: RTV = (tumor volume on measured day)/(tumor volume on day 0).

Series [5] deals with T1, EGFR. Description: SILAC phosphoproteomics in A549 cells, EGFR. It counts as cell-based. As to conditions: 8 μM, 8 h, treated versus untreated. The procedure:
(§3) A549 cells were cultured in F12 and supplemented with either (U‐12C6)‐L‐lysine (light) or (U‐13C6)‐L‐lysine (heavy) for at least eight generations. The heavy labeling efficiency was measured by mass spectrometer analysis. Cells were continuously maintained in SILAC medium until they reached the desired confluence. Cells were treated with 8 μM of Ibr‐7 for 8 h, and then harvested by trypsinization. The enriched fractions were analyzed by mass spectrometry.

Series [6] deals with mTOR. Briefly: SILAC phosphoproteomics in A549 cells, mTOR. It counts as cell-based. As to conditions: 8 μM, 8 h, treated versus untreated. The procedure:
as §3

In the next series the test system is RPS6KA1. Description: SILAC phosphoproteomics in A549 cells, RPS6KA1. The class given is cell-based. Particulars: 8 μM, 8 h, treated versus untreated. Here is the method: as §3
The subject of the next series is RPS6. Description: SILAC phosphoproteomics in A549 cells, RPS6. As to conditions: 8 μM, 8 h, treated versus untreated. The class given is cell-based. The procedure: as §3
The test system of a further series is EIF2S2. Description: SILAC phosphoproteomics in A549 cells, EIF2S2. The class given is cell-based. Particulars: 8 μM, 8 h, treated versus untreated. Here is the method:
as §3

The subject of the next series is LARP1. Briefly: SILAC phosphoproteomics in A549 cells, LARP1. The class given is cell-based. Particulars: 8 μM, 8 h, treated versus untreated. Here is the method:
as §3

T1 sequence (P00533 25-1210): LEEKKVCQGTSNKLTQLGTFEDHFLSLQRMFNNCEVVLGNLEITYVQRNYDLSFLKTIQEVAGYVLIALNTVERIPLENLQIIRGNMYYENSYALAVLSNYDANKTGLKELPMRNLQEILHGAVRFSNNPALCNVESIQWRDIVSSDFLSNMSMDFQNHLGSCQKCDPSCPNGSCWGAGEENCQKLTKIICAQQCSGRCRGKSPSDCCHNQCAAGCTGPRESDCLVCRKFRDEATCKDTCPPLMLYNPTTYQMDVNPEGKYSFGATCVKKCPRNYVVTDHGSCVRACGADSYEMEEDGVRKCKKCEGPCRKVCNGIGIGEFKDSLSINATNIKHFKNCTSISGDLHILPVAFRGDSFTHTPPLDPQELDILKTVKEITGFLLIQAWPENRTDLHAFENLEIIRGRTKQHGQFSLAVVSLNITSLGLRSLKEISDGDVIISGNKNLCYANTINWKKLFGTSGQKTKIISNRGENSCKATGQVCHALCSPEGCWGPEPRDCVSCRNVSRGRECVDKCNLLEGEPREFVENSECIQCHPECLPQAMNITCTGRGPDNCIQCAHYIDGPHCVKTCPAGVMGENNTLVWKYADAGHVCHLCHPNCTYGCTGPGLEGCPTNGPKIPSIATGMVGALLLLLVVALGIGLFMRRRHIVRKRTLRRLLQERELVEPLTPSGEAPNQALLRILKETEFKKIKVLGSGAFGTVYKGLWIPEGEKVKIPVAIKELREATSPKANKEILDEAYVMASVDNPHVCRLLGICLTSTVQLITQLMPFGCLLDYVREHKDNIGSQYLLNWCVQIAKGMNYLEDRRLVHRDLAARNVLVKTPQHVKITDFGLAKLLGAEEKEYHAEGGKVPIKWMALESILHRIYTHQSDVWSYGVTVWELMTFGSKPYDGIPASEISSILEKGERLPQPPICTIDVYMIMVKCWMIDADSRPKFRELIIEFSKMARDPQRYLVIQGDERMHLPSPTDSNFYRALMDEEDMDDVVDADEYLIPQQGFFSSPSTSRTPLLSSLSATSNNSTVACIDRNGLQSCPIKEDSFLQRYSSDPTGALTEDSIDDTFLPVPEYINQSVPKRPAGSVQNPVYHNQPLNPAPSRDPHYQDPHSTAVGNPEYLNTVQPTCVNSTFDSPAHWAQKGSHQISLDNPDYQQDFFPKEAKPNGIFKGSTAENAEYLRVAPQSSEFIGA
PI3Ka, sequence (P42336 whole entry): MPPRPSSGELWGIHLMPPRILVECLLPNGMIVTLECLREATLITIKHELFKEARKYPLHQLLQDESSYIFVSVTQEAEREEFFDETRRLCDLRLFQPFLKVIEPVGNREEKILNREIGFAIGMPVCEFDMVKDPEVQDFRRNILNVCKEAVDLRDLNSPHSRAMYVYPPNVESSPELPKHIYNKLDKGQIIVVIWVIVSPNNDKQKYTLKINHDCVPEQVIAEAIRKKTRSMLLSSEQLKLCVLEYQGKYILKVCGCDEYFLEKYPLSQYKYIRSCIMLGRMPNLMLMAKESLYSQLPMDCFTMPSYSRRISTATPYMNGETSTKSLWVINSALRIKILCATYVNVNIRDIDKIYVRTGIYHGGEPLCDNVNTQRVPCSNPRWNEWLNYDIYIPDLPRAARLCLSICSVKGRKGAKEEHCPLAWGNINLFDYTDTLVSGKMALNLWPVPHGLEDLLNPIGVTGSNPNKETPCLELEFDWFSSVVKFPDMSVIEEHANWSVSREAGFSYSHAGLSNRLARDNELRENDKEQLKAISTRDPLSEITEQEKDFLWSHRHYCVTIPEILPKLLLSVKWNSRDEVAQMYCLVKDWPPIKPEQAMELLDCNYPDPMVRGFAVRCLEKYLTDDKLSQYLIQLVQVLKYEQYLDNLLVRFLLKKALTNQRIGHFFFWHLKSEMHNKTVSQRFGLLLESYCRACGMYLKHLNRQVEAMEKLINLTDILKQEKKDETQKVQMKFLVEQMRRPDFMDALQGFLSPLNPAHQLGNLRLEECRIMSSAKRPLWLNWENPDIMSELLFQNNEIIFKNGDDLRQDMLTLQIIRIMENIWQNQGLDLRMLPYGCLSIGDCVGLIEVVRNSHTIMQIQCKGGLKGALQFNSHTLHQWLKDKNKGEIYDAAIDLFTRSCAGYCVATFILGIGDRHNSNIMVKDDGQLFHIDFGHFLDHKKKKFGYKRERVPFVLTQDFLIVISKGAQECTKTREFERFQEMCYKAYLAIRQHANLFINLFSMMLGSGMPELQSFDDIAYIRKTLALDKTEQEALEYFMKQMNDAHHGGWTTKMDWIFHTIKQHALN
PI3Ka, sequence (P27986 whole entry partner): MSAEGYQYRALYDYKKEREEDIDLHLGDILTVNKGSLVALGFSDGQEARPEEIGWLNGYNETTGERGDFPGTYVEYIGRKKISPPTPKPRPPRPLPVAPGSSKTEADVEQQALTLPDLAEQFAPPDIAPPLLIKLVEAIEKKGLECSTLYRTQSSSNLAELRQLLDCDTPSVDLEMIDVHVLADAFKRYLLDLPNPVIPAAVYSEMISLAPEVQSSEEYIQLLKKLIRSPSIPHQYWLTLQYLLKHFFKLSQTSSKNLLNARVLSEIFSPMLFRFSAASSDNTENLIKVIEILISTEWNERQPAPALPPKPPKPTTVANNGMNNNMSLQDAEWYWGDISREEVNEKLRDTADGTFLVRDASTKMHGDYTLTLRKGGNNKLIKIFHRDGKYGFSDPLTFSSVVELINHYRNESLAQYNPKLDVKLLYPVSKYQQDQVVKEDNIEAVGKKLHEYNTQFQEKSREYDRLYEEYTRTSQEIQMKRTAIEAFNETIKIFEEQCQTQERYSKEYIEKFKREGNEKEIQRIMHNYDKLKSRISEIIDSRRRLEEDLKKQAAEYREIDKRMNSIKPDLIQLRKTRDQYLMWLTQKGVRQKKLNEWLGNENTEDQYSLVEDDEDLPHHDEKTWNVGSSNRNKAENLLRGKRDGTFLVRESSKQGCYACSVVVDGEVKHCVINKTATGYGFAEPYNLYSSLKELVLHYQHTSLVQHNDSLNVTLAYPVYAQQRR
Method for Mcl-1: After treated with different concentrations of compounds, total proteins were extracted using RIPA lysing buffer. […] The membranes were blocked with 5% non‐fat milk at room temperature for 1 h, and then incubated with primary antibodies overnight at 4 °C. After washing with Tris buffered saline with Tween 20 (TBST), membranes were incubated with secondary antibodies at room temperature for another 1 h. The protein bands were visualized by adding ECL system WBKLS0050 (EMD Millipore, Billerica, MA, USA) and analyzed using Bio‐Rad Laboratories Quantity One software (Bio‐Rad).

One may read the IC50 as the midpoint of a concentration-inhibition curve. As to `CC1(C)CCC(CN2CCN(c3ccc(C(=O)NS(=O)(=O)c4ccc(NCC5CCOCC5)c([N+](=O)[O-])c4)c(Oc4cnc5[nH]ccc5c4)c3)CC2)=C(c2ccc(Cl)cc2)C1` [ABT‐199], the IC50 with A549 cells and with H1975 cells was greater than 10 µM each time. Besides, in the series with Mcl-1, the Mcl-1 band intensity is given as 1.30.

Regarding `C=CC(=O)N1CCC[C@@H](n2nc(-c3ccc(Oc4ccccc4)cc3)c3c(N)ncnc32)C1` [ibrutinib, Ibrutinib, reference compound], the IC50 against PI3Ka and on mTOR [1] was greater than 1000 nM in each case. Also, the viability at 4 µM in series [2] came out at 88.1%.

Consider `C=CC(=O)Nc1cc(Nc2nccc(-c3cn(C)c4ccccc34)n2)c(OC)cc1N(C)CCN(C)C` [AZD‐9291], for which, in series [2], the viability at 4 µM came out at 57%.

Broadly, the Cmax is the highest concentration seen after dosing. Consider `C=C(Br)C(=O)N1CCCC(n2nc(-c3ccc(Oc4ccccc4)cn3)c3c(N)ncnc32)C1` (centres unmarked) [Ibr‐7], for which the IC50 was greater than 1000 nM on p70S6K; greater than 1000 nM on AKT1; 61 nM against EGFR [3]; greater than 1000 nM on PI3Ka; greater than 1000 nM at mTOR [1]; 1 to 4 µM in the series with A549 cells. Besides, the IC50 with H1975 cells lay in the range of 1 to 4 µM; with PC-9 cells, 1000 to 4000 nM; with H460 cells, 1000 to 4000 nM. Further, in series [2], the viability at 4 µM was found to be 40.3%. In series [4], this molecule displayed a Cmax of 304 ng/mL. The “anti-tumor activity by relative tumor volume (RTV)” value in the series with A549 xenograft is “the same anti‐tumor activity as ibrutinib”. For the same molecule, the “effect on mice bodyweight” value with A549 xenograft is listed as “without affecting the mice bodyweight”. Besides, the “Decrease fold of phosphorylated EGFR, position 693” value on EGFR [5] was determined as 1.76 fold. For the same molecule, at EGFR [5], the “Decrease fold of phosphorylated EGFR, position 991” value is 2.03 fold. Also, in the series on mTOR [6], the “Decrease fold of phosphorylated mTOR, position 2481” value turned out to be 2.23 fold. Moreover, the “Decrease fold of phosphorylated RPS6KA1, position 359” value in the series with RPS6KA1 worked out at 1.59 fold. In addition, the “Decrease fold of phosphorylated RPS6KA1, position 363” value in the series with RPS6KA1 is listed as 1.54 fold. Besides, the “Decrease fold of phosphorylated RPS6, position 244” value in the series on RPS6 stood at 2.17 fold. For the same molecule, the “Decrease fold of phosphorylated EIF2S2, position 67” value in the series on EIF2S2 is recorded as 1.99 fold. In the series on EIF2S2, the “Decrease fold of phosphorylated EIF2S2, position 111” value came to 1.58 fold. The “Decrease fold of phosphorylated LARP1, position 548” value with LARP1 was 1.90 fold. In the series on LARP1, the “Decrease fold of phosphorylated LARP1, position 766” value was found to be 4.70 fold. The “Decrease fold of phosphorylated LARP1, position 824” value in the series on LARP1 is 2.34 fold.

As for `CC(C)C[C@@H](C=O)NC(=O)[C@H](CC(C)C)NC(=O)[C@H](CC(C)C)NC(=O)OCc1ccccc1` [MG‐132] (Cbz-Leu-Leu-Leu-aldehyde), the “cytotoxicity on A549 cells” value in the series on A549 cells (10 μM, 24 h, CCK-8) is reported as “no cytotoxicity effect”.
